Article PMC3311629, “Rational Design and Characterization of D-Phe-Pro-D-Arg-Derived Direct Thrombin Inhibitors” (PLoS ONE, 2012)
Square brackets hold non-standard residues; d marks the D form. Peptide text beside a SMILES is read from it. 2Thi = N[C@@H](Cc1cccs1)C(=O)O

Experiments:
bovine α-thrombin = bovine α-thrombin (Bos taurus, UniProt P00735); assay: Inhibition of thrombin's hydrolytic activity towards chromogenic substrate S2238; assay type: biochemical; details: bovine α-thrombin 5 nM, 25°C, pH 7.46
Procedure: In a first instance, the inhibitory constants (Ki) for all peptides were determined using pseudo-first order kinetics. […] Substrate hydrolysis at 25°C, in sodium phosphate buffer pH 7.46, with 0.2 M NaCl and 50 µg/ml bovine serum albumin was monitored in real-time at 405 nm using a thermostated spectrophotometer (Cary), assuring that the hydrolysis of the chromogenic substrate was complete. Each kinetic trace was fitted to a first-order reaction mathematical model (At = A0*e^−kt or At = A0+a*(1−e^−kt)). The Ki was determined from the equation Ki = [I]/(kobs uninhibited/kobs inhibited−1), where kobs is the pseudo-first order rate constant and [I] is the molar inhibitor concentration. For the inhibitors that were structurally characterized, the kinetic parameters of S2238 hydrolysis and the type of inhibition were determined using 5 nM bovine α-thrombin (Sigma) and varying concentrations of both substrate (0–200 µM) and peptide inhibitors (0–50 µM). The data was fitted to a competitive enzyme inhibition model using Prism5 (GraphPad Software) and the built-in nonlinear regression global analysis package to determine the values for Ki, KM and Vmax. The goodness of fit was assessed using the built-in statistical analysis package, which enabled the calculation of R^2 values.

trypsin = biological target: T1, trypsin (Bos taurus, UniProt P00760); assay: Inhibitory activity towards trypsin (chromogenic substrate BAPNA); assay type: biochemical; details: for selectivity for thrombin versus trypsin: ratio of Ki values, thrombin vs trypsin; for Ki: trypsin 25 nM, BAPNA 1.84 mM, Ki = IC50/(1+S/KM), competitive mechanism assumed
T1 sequence (P00760 24-246): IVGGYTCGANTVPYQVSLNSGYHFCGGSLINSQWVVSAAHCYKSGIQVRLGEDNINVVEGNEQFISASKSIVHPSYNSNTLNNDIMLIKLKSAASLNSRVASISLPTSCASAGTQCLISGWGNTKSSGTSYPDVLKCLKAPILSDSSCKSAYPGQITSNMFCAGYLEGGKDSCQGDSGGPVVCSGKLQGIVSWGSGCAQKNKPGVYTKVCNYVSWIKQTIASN
Procedure: (§1) Factor Xa (15 nM; American Diagnostica) or trypsin (25 nM; Sigma) was incubated for 15 min at room temperature with 20–1600 µM of fPrI, fPrC or fPrt in 50 mM Tris-HCl pH 8.0 and 150 mM NaCl (factor Xa) or 50 mM Tris-HCl pH 8.0, 150 mM NaCl and 160 mM CaCl2 prior to substrate addition. The chromogenic substrates were S2222 (Nα-Benzoyl-L-isoleucyl-L-glutamyl-glycyl-L-arginine-4-nitroanilide hydrochloride; American Diagnostica) for factor Xa or BAPNA (Nα-Benzoyl-L-arginine-4-nitroanilide hydrochloride; Sigma) for trypsin. Substrate hydrolysis was monitored at 405 (S2222) or 410 nm (BAPNA) using a thermostated spectrophotometer (Cary). IC50 values were determined using the built in equation provided by Prism5 (GraphPad Software).

α-thrombin = α-thrombin (Bos taurus, UniProt P00735); assay: Inhibitor resistance to proteolysis by thrombin (ESI mass spectrometry); assay type: in vitro ADME; details: 20 µM peptide with 20 µM α-thrombin, 24 h, room temperature, pH 7.46, mass spectrometry
Procedure: After 24 h incubation, aliquots were removed and the reaction was quenched with 0.1% TFA. The samples were analyzed on an ESI spectrometer run in the positive mode. As the expected molecular mass of the tripeptide resulting from the hydrolysis of the D-Arg-P1′ peptide bond is 418.5 Da, spectra were acquired in the 400–1000 Da window.

factor Xa = biological target: T2, factor Xa (Homo sapiens, UniProt P00742); assay: Inhibitory activity towards factor Xa (chromogenic substrate S2222); assay type: biochemical; details: for Ki: factor Xa 15 nM, S2222 0.18 mM, Ki = IC50/(1+S/KM), competitive mechanism assumed; for selectivity for thrombin versus factor Xa: ratio of Ki values, thrombin vs factor Xa
T2 construct: Factor Xa (15 nM; American Diagnostica); purchased American Diagnostica
Procedure: as §1

T2 sequence (P00742 235-488 limits assumed): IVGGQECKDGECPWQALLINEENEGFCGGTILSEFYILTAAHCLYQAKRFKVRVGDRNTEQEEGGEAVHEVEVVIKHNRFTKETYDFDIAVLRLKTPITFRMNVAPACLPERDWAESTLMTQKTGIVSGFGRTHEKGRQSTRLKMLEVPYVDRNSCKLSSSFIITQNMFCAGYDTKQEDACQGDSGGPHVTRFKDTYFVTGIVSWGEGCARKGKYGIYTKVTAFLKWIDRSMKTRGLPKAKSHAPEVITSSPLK
T2 sequence (P00742 41-179 partner limits assumed): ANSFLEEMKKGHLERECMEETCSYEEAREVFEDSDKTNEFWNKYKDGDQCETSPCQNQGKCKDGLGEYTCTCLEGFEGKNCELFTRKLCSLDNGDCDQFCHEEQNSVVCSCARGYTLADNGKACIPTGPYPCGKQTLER

Structure (SMILES) | Ki (bovine α-thrombin) | further results
N=C(N)NCCC[C@@H](NC(=O)[C@@H]1CCCN1C(=O)[C@H](N)Cc1ccccc1)C(=O)N[C@@H](Cc1c[nH]cn1)C(N)=O [Peptide 7, D-Phe-Pro-D-Arg-His] (H-[dF]P[dR]H-NH2) | 122 ± 9.5 µM | 
N=C(N)NCCC[C@@H](NC(=O)[C@@H]1CCCN1C(=O)[C@H](N)Cc1ccccc1)C(=O)N[C@@H](CCC(N)=O)C(N)=O [Peptide 21, D-Phe-Pro-D-Arg-Gln] (H-[dF]P[dR]Q-NH2) | 43.1 ± 2.6 µM | 
N=C(N)NCCC[C@@H](NC(=O)[C@@H]1CCCN1C(=O)[C@H](N)Cc1ccccc1)C(=O)N[C@@H](Cc1cccs1)C(N)=O [Peptide 27, D-Phe-Pro-D-Arg-Thi] (H-[dF]P[dR][2Thi]-NH2) | 8.16 ± 0.35 µM | 
N=C(N)NCCC[C@@H](NC(=O)[C@@H]1CCCN1C(=O)[C@H](N)Cc1ccccc1)C(=O)N[C@H](CCC(N)=O)C(N)=O [Peptide 22, D-Phe-Pro-D-Arg-D-Gln] (H-[dF]P[dR][dQ]-NH2) | 19.3 ± 0.6 µM | 
N=C(N)NCCC[C@@H](NC(=O)[C@@H]1CCCN1C(=O)[C@H](N)Cc1ccccc1)C(=O)NCC(N)=O [Peptide 3, D-Phe-Pro-D-Arg-Gly] (H-[dF]P[dR]G-NH2) | 5.9 ± 0.2 µM | 
CSCC[C@H](NC(=O)[C@@H](CCCNC(=N)N)NC(=O)[C@@H]1CCCN1C(=O)[C@H](N)Cc1ccccc1)C(N)=O [Peptide 28, D-Phe-Pro-D-Arg-Met] (H-[dF]P[dR]M-NH2) | 37.2 ± 2.5 µM | 
N=C(N)NCCC[C@@H](NC(=O)[C@@H]1CCCN1C(=O)[C@H](N)Cc1ccccc1)C(=O)N1CCC[C@@H]1C(N)=O [Peptide 10, D-Phe-Pro-D-Arg-D-Pro] (H-[dF]P[dR][dP]-NH2) | 489 ± 113 µM | 
N=C(N)NCCC[C@@H](NC(=O)[C@@H]1CCCN1C(=O)[C@H](N)Cc1ccccc1)C(=O)N[C@@H](Cc1ccc(O)cc1)C(N)=O [Peptide 12, D-Phe-Pro-D-Arg-Tyr] (H-[dF]P[dR]Y-NH2) | 50.5 ± 3.4 µM | 
N=C(N)NCCC[C@H](NC(=O)[C@@H](CCCNC(=N)N)NC(=O)[C@@H]1CCCN1C(=O)[C@H](N)Cc1ccccc1)C(N)=O [Peptide 4, D-Phe-Pro-D-Arg-Arg] (H-[dF]P[dR]R-NH2) | 91.1 ± 8.2 µM | 
N=C(N)NCCC[C@@H](NC(=O)[C@@H]1CCCN1C(=O)[C@H](N)Cc1ccccc1)C(=O)N[C@@H](Cc1ccccc1)C(N)=O [Peptide 8, D-Phe-Pro-D-Arg-Phe] (H-[dF]P[dR]F-NH2) | 250 ± 20 µM | 
N=C(N)NCCC[C@@H](NC(=O)[C@@H]1CCCN1C(=O)[C@H](N)Cc1ccccc1)C(=O)N1CCC[C@H]1C(N)=O [Peptide 9, D-Phe-Pro-D-Arg-Pro] (H-[dF]P[dR]P-NH2) | 89.5 ± 5.5 µM | 
N=C(N)NCCC[C@@H](NC(=O)[C@@H]1CCCN1C(=O)[C@H](N)Cc1ccccc1)C(=O)N[C@@H](Cc1c[nH]c2ccccc12)C(N)=O [Peptide 11, D-Phe-Pro-D-Arg-Trp] (H-[dF]P[dR]W-NH2) | 65.6 ± 7.2 µM | 
N=C(N)NCCC[C@@H](NC(=O)[C@@H]1CCCN1C(=O)[C@H](N)Cc1ccccc1)C(=O)N[C@@H](CCC(=O)O)C(N)=O [Peptide 6, D-Phe-Pro-D-Arg-Glu] (H-[dF]P[dR]E-NH2) | 556 ± 89.6 µM | 
N=C(N)NCCC[C@@H](NC(=O)[C@@H]1CCCN1C(=O)[C@H](N)Cc1ccccc1)C(=O)N[C@@H](CCCCN)C(N)=O [Peptide 5, D-Phe-Pro-D-Arg-Lys] (H-[dF]P[dR]K-NH2) | 66.6 ± 6.5 µM | 

Further lines, with some results ahead:

Ki (bovine α-thrombin) | Structure (SMILES) | further results
2.17 ± 0.6 µM | CC(C)[C@@H](NC(=O)[C@@H](CCCNC(=N)N)NC(=O)[C@@H]1CCCN1C(=O)[C@H](N)Cc1ccccc1)C(N)=O [Peptide 14, D-Phe-Pro-D-Arg-D-Val] (H-[dF]P[dR][dV]-NH2) | 
2.4 ± 0.05 µM | N=C(N)NCCC[C@@H](NC(=O)[C@@H]1CCCN1C(=O)[C@H](N)Cc1ccccc1)C(=O)N[C@H](CS)C(N)=O [Peptide 20, D-Phe-Pro-D-Arg-D-Cys] (H-[dF]P[dR][dC]-NH2) | 
12.5 ± 0.35 µM | C[C@@H](O)[C@H](NC(=O)[C@@H](CCCNC(=N)N)NC(=O)[C@@H]1CCCN1C(=O)[C@H](N)Cc1ccccc1)C(N)=O [Peptide 15, D-Phe-Pro-D-Arg-Thr] (H-[dF]P[dR]T-NH2) | 
7.44 ± 0.5 µM | CC[C@@H](C)[C@@H](NC(=O)[C@@H](CCCNC(=N)N)NC(=O)[C@@H]1CCCN1C(=O)[C@H](N)Cc1ccccc1)C(N)=O [Peptide 24, D-Phe-Pro-D-Arg-D-Ile] (H-[dF]P[dR][dI]-NH2) | 
0.92 ± 0.08 µM | C[C@H](O)[C@@H](NC(=O)[C@@H](CCCNC(=N)N)NC(=O)[C@@H]1CCCN1C(=O)[C@H](N)Cc1ccccc1)C(N)=O [Peptide 16, D-Phe-Pro-D-Arg-D-Thr] (H-[dF]P[dR][dT]-NH2) | selectivity for thrombin versus trypsin (trypsin): 420 fold; Ki (trypsin): 389 ± 5.5 µM; Stability against thrombin hydrolysis (cleavage product D-Phe-Pro-D-Arg, 418.5 Da) (α-thrombin): could not be identified; Ki (factor Xa): 103 ± 1.44 µM; selectivity for thrombin versus factor Xa (factor Xa): 110 fold
16.5 ± 1.5 µM | N=C(N)NCCC[C@@H](NC(=O)[C@@H]1CCCN1C(=O)[C@H](N)Cc1ccccc1)C(=O)N[C@@H](CS)C(N)=O [Peptide 19, D-Phe-Pro-D-Arg-Cys] (H-[dF]P[dR]C-NH2) | selectivity for thrombin versus trypsin (trypsin): 20 fold; Ki (trypsin): 377.1 ± 3.6 µM; Stability against thrombin hydrolysis (cleavage product D-Phe-Pro-D-Arg, 418.5 Da) (α-thrombin): could not be identified; Ki (factor Xa): 41.4 ± 2.6 µM; selectivity for thrombin versus factor Xa (factor Xa): 3 fold
12.3 ± 0.08 µM | N=C(N)NCCC[C@@H](NC(=O)[C@@H]1CCCN1C(=O)[C@H](N)Cc1ccccc1)C(=O)N[C@H](CO)C(N)=O [Peptide 18, D-Phe-Pro-D-Arg-D-Ser] (H-[dF]P[dR][dS]-NH2) | 
56.3 ± 1.5 µM | CC(C)[C@H](NC(=O)[C@@H](CCCNC(=N)N)NC(=O)[C@@H]1CCCN1C(=O)[C@H](N)Cc1ccccc1)C(N)=O [Peptide 13, D-Phe-Pro-D-Arg-Val] (H-[dF]P[dR]V-NH2) | 
2.06 ± 0.04 µM | C[C@@H](NC(=O)[C@@H](CCCNC(=N)N)NC(=O)[C@@H]1CCCN1C(=O)[C@H](N)Cc1ccccc1)C(N)=O [Peptide 2, D-Phe-Pro-D-Arg-D-Ala] (H-[dF]P[dR][dA]-NH2) | 
16.6 ± 0.8 µM | C[C@H](NC(=O)[C@@H](CCCNC(=N)N)NC(=O)[C@@H]1CCCN1C(=O)[C@H](N)Cc1ccccc1)C(N)=O [Peptide 1, D-Phe-Pro-D-Arg-Ala] (H-[dF]P[dR]A-NH2; N-terminus assumed) | 
7.7 ± 0.73 µM | CC[C@H](C)[C@H](NC(=O)[C@@H](CCCNC(=N)N)NC(=O)[C@@H]1CCCN1C(=O)[C@H](N)Cc1ccccc1)C(N)=O [Peptide 23, D-Phe-Pro-D-Arg-Ile] (H-[dF]P[dR]I-NH2) | selectivity for thrombin versus trypsin (trypsin): 12 fold; Ki (trypsin): 90.2 ± 2.8 µM; Stability against thrombin hydrolysis (cleavage product D-Phe-Pro-D-Arg, 418.5 Da) (α-thrombin): could not be identified; Ki (factor Xa): 7300 µM
17.1 ± 0.8 µM | N=C(N)NCCC[C@@H](NC(=O)[C@@H]1CCCN1C(=O)[C@H](N)Cc1ccccc1)C(=O)N[C@@H](CO)C(N)=O [Peptide 17, D-Phe-Pro-D-Arg-Ser] (H-[dF]P[dR]S-NH2) | 
4.13 ± 0.24 µM | CC(C)C[C@@H](NC(=O)[C@@H](CCCNC(=N)N)NC(=O)[C@@H]1CCCN1C(=O)[C@H](N)Cc1ccccc1)C(N)=O [Peptide 26, D-Phe-Pro-D-Arg-D-Leu] (H-[dF]P[dR][dL]-NH2) | 
20.6 ± 4.5 µM | CC(C)C[C@H](NC(=O)[C@@H](CCCNC(=N)N)NC(=O)[C@@H]1CCCN1C(=O)[C@H](N)Cc1ccccc1)C(N)=O [Peptide 25, D-Phe-Pro-D-Arg-Leu] (H-[dF]P[dR]L-NH2) | 
